Laboratory results as given in patent US20250134847A1, “COMBINATION THERAPIES” (QBIOTICS PTY LTD, priority 2022, published 2025).
Read-outs that look alike come from different tables or passages of the source.

Experiments:
[1] = test system: SCC-15 tumours; assay: SCC-15 tumours in BALB/c Foxn1^nu xenogeneic mouse model, intratumoural Compound 1 and external beam irradiation; format: in vivo; details: for Median Survival: Xenogeneic Model
Method: (§1) Subjects were ear tagged for identification.
(§2) Adequate positioning was ensured with the irradiator (Gammacel 40 Extractor) by sedating each mouse with a combination solution of Ketamine (80 mg/kg of 8 mg/mL solution, Ceva, NSW, AU) and Midazolam (4 mg/kg of 0.4 mg/mL solution, Sandoz, Hozkirchen, Germany) via intraperitoneal injection. Mice were double contained during transfer to and from the irradiator. During irradiation, mice were restrained with lead shielding to prevent exposure to sites other than the flanks where the tumours were located.
(§3) Tumour volume was recorded as above.

[2] = test system: MC38 tumours; assay: MC38 tumours in C57BL/6 syngeneic mouse model, intratumoural Compound 1 and external beam irradiation; format: in vivo; details: for Median Survival: Syngeneic Model
Method: The MC38 cell line is a murine colonic adenocarcinoma cell line derived from the C57BL/6 mouse (Kerafast, ENH204).
as §1
as §2, with “located. […] On completion of treatment, mice were warmed with a heating blanket, placed on their side, and observed until ambulant.” for “located.”
as §3

[3] = test system: LLC tumours; assay: Lewis Lung Carcinoma (LLC) tumours in C57BL/6 mice, intratumoural Compound 1 and intraperitoneal doxorubicin; format: in vivo, mouse
Method: (§4) B16-F10-OVA (B16-F10 mouse melanoma cell line overexpressing chicken ovalbumin) were cultured in RPMI-1640 supplemented with 10% FCS (complete medium) and 3 mM HEPES. LLC (Lewis Lung Carcinoma) cells were cultured in DMEM (Gibco) supplemented with 10% FCS. Both cell lines were incubated at 37° C., 5% CO2 in a humidified incubator.
(§5) C57BL/6 mice were purchased from the Animal Resources Centre (ARC), Murdoch, Western Australia. […] All mice were housed in a specific pathogen free (SPF) facility, with 12 hours light/dark cycle and continual access to food and water.
C57BL/6 mice (6-7 weeks old) were injected subcutaneously (s.c.) on both flanks with B16-F10-OVA mouse melanoma cells (2×10^5 cells per site in 50 μl) or LLC mouse lung cancer cells (5×10^5 cells per site in 50 μl). Tumours were allowed to develop to approximately 75-100 mm^3. Mice were then treated intra-peritoneally with doxorubicin in saline (3 mg/kg; 60 μg/dose, saline for vehicle). […] Treatment with the chemotherapy agent was repeated after 7 and 14 days. […]
Volumes were recorded using digital calipers and expressed as mm^3 according to the formula A×b×b×0.5 where A=length and b=measured breadth of the tumour. Mice were also assessed for clinical signs of distress according to an approved clinical score sheet during the experiment. […]

[4] = test system: SCC-15 tumours; details: Xenogeneic Model
Method: (§6) Prior to inoculation of subject mice, the cancer cells were seeded to T175 tissue culture flasks (Thermo Scientific) to increase cell numbers. Once 70-80% confluent, cells were trypsinized and resuspended in RPMI-1640 media for harvesting and cell count using a haemocytometer. The cell volume was centrifuged and the pellet reconstituted in RPMI-1640 media to a volume sufficient for the number of inoculations required at 100 μL per injection with two sites per mouse subject. The cell suspension was kept on ice and transferred to the animal facility for injection into the subjects.
The BALB/c Foxn1^nu mice were obtained from the Animal Resource Centre, Western Australia. The C3H/HeNCr mice were bred at the QIMR Animal Facility.
C3H/HeNCr mice were shaved (Wahl, Illinois, USA) one day before inoculation. Whilst restrained subjects were inoculated on the hind quarter bilaterally by injecting 100 μL of the appropriate cell suspension into the subcutaneous space with a Terumo® (Tokyo, Japan) 27G×½″ needle. Subjects were ear tagged for identification. Following inoculation, mice were monitored twice weekly for tumour development and well-being and once tumours developed, the subjects were monitored daily.
(§7) A cohort of thirty BALB/c Foxn1^nu and twenty-one C3H/HeNCr mice, each with two tumours per mouse were divided into six experimental groups as set out in Table 2.
(§8) Weight was recorded for each subject prior to and post-treatment, and at the time of culling. The width and length of each tumour was measured using 150 mm digital Vernier callipers (Kinchrome, Qld, AU) and individual tumour volume (mm^3) calculated using the formula:
IP injections were performed by first sterilizing the anterior abdominal wall of the subject with an alcohol swab before the dorsal skin of the subject was scruffed and the subject inverted with head down. A 29 G needle with the bevel upwards is used to inject into the lower right abdominal quadrant. […]
Tumour volume was recorded as above. […]
Data was analysed with Microsoft Excel and Prism 7 to calculate average tumour volumes and standard deviations (SD). […]

[5] = test system: A431 cells; details: for Combination Index at IC50, Irradiation: with irradiation
Method: (§9) Cells were seeded at 3000 cells/well in 100 μL of medium in flat bottom 96 well cell culture plates (Corning Incorporated, New York, USA). Cells were incubated for 24 hr to ensure plate adherence prior to treatment.
(§10) One in two dilutions were then performed down the plate leaving the last row as an untreated control.
(§11) Each cell line was treated with each agent in triplicate with data being averaged across the three trials.
(§12) For single agent experiments, wells included no treatment and ethanol treatment controls. Following treatment, cells were incubated for 4 hours prior to washing with PBS and replacement of medium.
(§13) Following incubation of treated cells for 5-7 days, cell survival was determined using a sulforhodamine B (SRB) proliferation assay. This assay quantitatively assesses the degree of protein staining as a surrogate marker for cellular growth. Cells were washed with PBS and subsequently fixed with methylated spirits (Chem Supply, South Australia) for at least five minutes. Following fixation, the methylated spirits was removed and cells again washed gently with water prior to staining with 50 μL/well of 0.4% SRB solution (Sigma Aldrich) in 1% acetic acid for sixty minutes. This solution was tipped off and cells quickly washed twice with 1% acetic acid. The assay was completed with administration of 100 μL/well of 10 mM Tris base (unbuffered, pH >9, Invitrogen). Absorbance was measured on an enzyme-linked immunosorbent assay (ELISA) reader (VERSA max microplate reader, Molecular Devices, California, USA) at 564 nm and a five second agitation. Cell survival was graphed as a percentage of control well absorbance against dose.
(§14) Analysis was performed using the software program Combusyn.
(§15) As for the single agent experimentation, the cell lines were maintained in culture before their eventual transfer to 96-well plates. […] Cell survival was determined relative to no-treatment controls after 7 days of incubation using SRB assays.

[6] = test system: SCC-15 cells; details: for Combination Index at IC50, Irradiation: with irradiation; for relationship by Chou-Talalay combination index method: Compound 1 with irradiation
Method: as §9, §10, §11, §12, §13, §14, §15

[7] = test system: UV-13-1 tumours; details: for Median Survival: Syngeneic Model
Method: as §6
C3H/HeNCr mice were shaved (Wahl, Illinois, USA) one day before inoculation. Whilst restrained subjects were inoculated on the hind quarter bilaterally by injecting 100 μL of the appropriate cell suspension into the subcutaneous space with a Terumo® (Tokyo, Japan) 27G×½″ needle. […] Following inoculation, mice were monitored twice weekly for tumour development and well-being and once tumours developed, the subjects were monitored daily.
as §7, §8
IP injections were performed by first sterilizing the anterior abdominal wall of the subject with an alcohol swab before the dorsal skin of the subject was scruffed and the subject inverted with head down. A 29 G needle with the bevel upwards is used to inject into the lower right abdominal quadrant.
On reaching a volume of 70-100 mm^3, tumours of the test subjects were injected IT with 50 μL of either 5 μg or 10 μg of Compound 1 or for control subjects 50 μL of 40% propylene glycol (PG).
The subjects were euthanized by CO2 inhalation when total tumour burden reached 1000 mm^3 per mouse, if ill, and on completion of the experiment.
Data was analysed with Microsoft Excel and Prism 7 to calculate average tumour volumes and standard deviations (SD). Individual and averaged tumour volumes and Kaplan-Meier survival curves were graphed relative to time of treatment.
C3H/HeNCr mouse model inoculated with UV-13-1 tumours is a syngeneic model where the mouse is immunocompetent and the influence of the immune system on treatment may be assessed. These mice were not culled at 60 days but were periodically (weekly) monitored up to 200 days for recurrence.

[8] = test system: B16-F10-OVA tumours; assay: B16-F10-OVA mouse melanoma tumours in C57BL/6 mice, intratumoural Compound 1 and intraperitoneal doxorubicin
Method: as §4, §5
C57BL/6 mice (6-7 weeks old) were injected subcutaneously (s.c.) on both flanks with B16-F10-OVA mouse melanoma cells (2×10^5 cells per site in 50 μl) or LLC mouse lung cancer cells (5×10^5 cells per site in 50 μl). Tumours were allowed to develop to approximately 75-100 mm^3. Mice were then treated intra-peritoneally with doxorubicin in saline (3 mg/kg; 60 μg/dose, saline for vehicle). […] Treatment with the chemotherapy agent was repeated after 7 and 14 days. For the B16-F10-OVA model, 5 mice per group (10 tumours) were used in duplicate experiments (total of 10 mice per group, 20 tumours in total from both experiments). For the LLC tumour model, 5 mice per group were used in a single experiment (10 tumours).
Volumes were recorded using digital calipers and expressed as mm^3 according to the formula A×b×b×0.5 where A=length and b=measured breadth of the tumour. Mice were also assessed for clinical signs of distress according to an approved clinical score sheet during the experiment. The experiment ceased when an unacceptable clinical score (>6) was reached, or the cumulative tumour burden of the mouse exceeded 1,000 mm^3. […] Mice were humanely euthanized by CO2 asphyxiation at the end of the experiment.

[9] = 5 Gy irradiation + IT 7.5 μg Compound 1
[10] = 10 Gy irradiation + IT 7.5 μg Compound 1
[11] = syngeneic model, 5 Gy irradiation + 7.5 μg IT Compound 1
[12] = syngeneic model, 10 Gy irradiation + 7.5 μg IT Compound 1
[13] = 5 μg or 10 μg Compound 1, p<0.0001
[14] = IP N/Saline + IT 5 μg Compound 1
[15] = IP N/Saline + IT 10 μg Compound 1
[16] = IP cisplatin 2.5 mg/kg + IT 40% PG
[17] = intraperitoneal doxorubicin 3 mg/kg + intralesional 40% PG/30 mM acetate

## C/C=C(\C)C(=O)O[C@@H]1[C@@H](C)[C@@]2(O)[C@H]([C@@H]3C(C)(C)[C@]13OC(=O)[C@@H](C)CC)[C@@H]1O[C@]1(CO)[C@@H](O)[C@]1(O)C(=O)C(C)=C[C@H]12 [Compound 1, 12-tigloyl-13-(2-methylbutanoyl)-6,7-epoxy-4,5,9,12,13,20-hexahydroxy-1-tiglien-3-one]
[1]; 0 Gy + IT 7.5 μg Compound 1
  Median Survival: 22 days
[1]; [9]
  Median Survival: 32 days
[1]; [10]
  Median Survival: 166 days
[1]; xenogeneic model, 7.5 μg IT Compound 1 alone
  cure rate: 70%
[1]; xenogeneic model, 5 Gy irradiation + 7.5 μg IT Compound 1
  survival rate at 200 days: 20%
[1]; xenogeneic model, 10 Gy irradiation + 7.5 μg IT Compound 1
  survival rate at 200 days: 50%
[1]; xenogeneic model, Compound 1 and 5 Gy irradiation
  cure rate (proportion of tumours responding completely): 80%
[1]; xenogeneic model, Compound 1 and 10 Gy irradiation
  cure rate (proportion of tumours responding completely): 70%
[1]; xenogeneic model, Compound 1 combined with irradiation
  tumour size response compared to other combinations: significant and durable reduction in tumour size
[1]; xenogeneic model, Compound 1 monotherapy
  duration of treatment response: 11 days
[1]; xenogeneic model, Compound 1 with 5 Gy irradiation
  duration of treatment response: 51.5 days
[1]; xenogeneic model, Compound 1 with 10 Gy irradiation
  duration of treatment response: 111 days
[1]; xenogeneic model, Compound 1 with irradiation, either 5 Gy or 10 Gy
  improvement of duration of treatment response over monotherapy: at least 4.6 ×
[2]; 0 Gy + IT 7.5 μg Compound 1
  Median Survival: 13 days
[2]; [9]
  Median Survival: 31 days
[2]; [10]
  Median Survival: 47 days
[2]; syngeneic model, 7.5 μg IT Compound 1 alone
  cure rate: 70%
[2]; [11]
  survival at experiment end: 20%
  tumours that remained cured at 200 days following treatment: two
[2]; [12]
  survival at experiment end: 20%
  tumours that remained cured at 200 days following treatment: two
[2]; syngeneic model, Compound 1 and 5 Gy irradiation
  cure rate (proportion of tumours responding completely): 100%
[2]; syngeneic model, Compound 1 and 10 Gy irradiation
  cure rate (proportion of tumours responding completely): 100%
[2]; syngeneic model, Compound 1 monotherapy
  duration of treatment response: 6.2 days
[2]; syngeneic model, Compound 1 with 5 Gy irradiation
  duration of treatment response: 64.6 days
[2]; syngeneic model, Compound 1 with 10 Gy irradiation
  duration of treatment response: 65.9 days
[2]; syngeneic model, Compound 1 with irradiation, either 5 Gy or 10 Gy
  improvement of duration of treatment response over monotherapy: ≥ 8.7 ×
[2]; syngeneic model, combinations of Compound 1 and irradiation
  tumour response (individual and average tumour volumes): considerably improved tumour response
[3]; [13]
  tumour growth and overall survival compared to vehicle alone: slowed tumour growth and prolonged overall survival
[4]; [14]
  Median Survival: 11 days
[4]; [15]
  Median Survival: 13 days
[5]; Compound 1 concentration 10 μM
  Combination Index at IC50, Irradiation: 0.33
[5]; Compound 1 concentration 50 μM
  Combination Index at IC50, Irradiation: 0.41
[5]; Compound 1 concentration 100 μM
  Combination Index at IC50, Irradiation: 0.12
[5]; Compound 1 concentration 200 μM
  Combination Index at IC50, Irradiation: 0.08
[5]; Compound 1 with any concentration of irradiation
  cell death compared to Compound 1 alone: significant increase in cell death
[5]; Compound 1 with irradiation
  relationship by Chou-Talalay combination index method: synergistic
[6]; Compound 1 concentration 2 μM
  Combination Index at IC50, Irradiation: 0.15
[6]; Compound 1 concentration 20 μM
  Combination Index at IC50, Irradiation: 2.1
[6]; Compound 1 concentration 40 μM
  Combination Index at IC50, Irradiation: 1.75
[6]; Compound 1 concentration 60 μM
  Combination Index at IC50, Irradiation: 1.34
[6]; at low concentrations
  relationship by Chou-Talalay combination index method: synergistic
[6]; some combination indices (CI >1)
  relationship by Chou-Talalay combination index method: consistent with antagonism
[6]; exposure to Compound 1 and irradiation
  cell survival: pronounced fall in cell survival
[7]; [14]
  Median Survival: 16.5 days
[7]; [15]
  Median Survival: 23.5 days
[7]; syngeneic model, 5 μg and 10 μg Compound 1 IT with saline
  efficacy versus IP cisplatin alone: more efficacious than IP cisplatin alone
[8]; [13]
  tumour growth and overall survival compared to vehicle alone: slowed tumour growth and prolonged overall survival
[8]; saline/10 μg Compound 1 group
  tumours completely ablated: 4/20

## N.N.[Cl][Pt][Cl] [cisplatin, reference compound]
[4]; [16]
  Median Survival: 11 days
[7]; [16]
  Median Survival: 12 days

## COc1cccc2c1C(=O)c1c(O)c3c(c(O)c1C2=O)C[C@@](O)(C(=O)CO)C[C@@H]3O[C@H]1C[C@H](N)[C@H](O)[C@H](C)O1 [doxorubicin, reference compound]
[3]; [17]
  effect on tumour growth and survival: minor effect on slowing tumour growth and prolonging survival
[8]; [17]
  effect on tumour growth: no effect on tumour growth
